The target in assay [1] is T1, Sodium-dependent serotonin transporter (Homo sapiens, UniProt P31645). Put plainly: Displacement of [3H]-citalopram from human serotonin transporter expressed in HEK 293 cells. It is filed as cell-based, HEK293. A general note: Loss of bound radioactivity is the signal in a displacement assay; it reports binding, not function.
Assay [2] deals with 5-hydroxytryptamine receptor 2A (Homo sapiens, UniProt P28223). Kind of assay: Binding affinity to human 5HT2A receptor.
5-hydroxytryptamine receptor 2A, sequence (P28223 whole entry): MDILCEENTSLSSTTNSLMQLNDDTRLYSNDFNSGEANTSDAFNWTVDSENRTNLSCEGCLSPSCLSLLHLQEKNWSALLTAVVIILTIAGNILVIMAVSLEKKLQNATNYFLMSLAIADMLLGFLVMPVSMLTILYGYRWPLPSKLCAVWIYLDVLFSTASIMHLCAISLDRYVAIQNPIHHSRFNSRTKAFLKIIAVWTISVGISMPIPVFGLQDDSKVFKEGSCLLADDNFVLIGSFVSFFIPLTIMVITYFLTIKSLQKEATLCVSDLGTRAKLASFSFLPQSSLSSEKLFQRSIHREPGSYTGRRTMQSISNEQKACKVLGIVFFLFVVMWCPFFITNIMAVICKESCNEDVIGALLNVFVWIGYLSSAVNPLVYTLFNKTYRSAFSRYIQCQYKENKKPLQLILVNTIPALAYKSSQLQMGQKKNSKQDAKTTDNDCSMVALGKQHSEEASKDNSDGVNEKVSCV
Assay [3] addresses T2, 5-hydroxytryptamine receptor 1A (Homo sapiens, UniProt P08908).
T2 sequence (P08908 whole entry): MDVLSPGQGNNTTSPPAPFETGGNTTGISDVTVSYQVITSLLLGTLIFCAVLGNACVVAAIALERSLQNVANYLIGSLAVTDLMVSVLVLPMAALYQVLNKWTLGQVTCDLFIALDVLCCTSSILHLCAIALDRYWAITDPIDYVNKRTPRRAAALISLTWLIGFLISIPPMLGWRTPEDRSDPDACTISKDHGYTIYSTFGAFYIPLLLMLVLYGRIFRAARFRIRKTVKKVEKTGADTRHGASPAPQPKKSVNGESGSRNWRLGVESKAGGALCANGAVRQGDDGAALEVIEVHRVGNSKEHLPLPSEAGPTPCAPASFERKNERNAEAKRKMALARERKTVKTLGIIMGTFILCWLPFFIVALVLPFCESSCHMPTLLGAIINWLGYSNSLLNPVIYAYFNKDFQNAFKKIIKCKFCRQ
Put plainly: Binding affinity to human 5HT1A receptor expressed in HeLa cells by scintillation proximity assay. In kind it is cell-based.

Assay [4] addresses T1, Sodium-dependent serotonin transporter. Kind of assay: Displacement of [3H]-citalopram from human serotonin transporter expressed in HEK 293 cells by scintillation proximity assay. In kind it is cell-based, HEK293.

T1 sequence (P31645 whole entry): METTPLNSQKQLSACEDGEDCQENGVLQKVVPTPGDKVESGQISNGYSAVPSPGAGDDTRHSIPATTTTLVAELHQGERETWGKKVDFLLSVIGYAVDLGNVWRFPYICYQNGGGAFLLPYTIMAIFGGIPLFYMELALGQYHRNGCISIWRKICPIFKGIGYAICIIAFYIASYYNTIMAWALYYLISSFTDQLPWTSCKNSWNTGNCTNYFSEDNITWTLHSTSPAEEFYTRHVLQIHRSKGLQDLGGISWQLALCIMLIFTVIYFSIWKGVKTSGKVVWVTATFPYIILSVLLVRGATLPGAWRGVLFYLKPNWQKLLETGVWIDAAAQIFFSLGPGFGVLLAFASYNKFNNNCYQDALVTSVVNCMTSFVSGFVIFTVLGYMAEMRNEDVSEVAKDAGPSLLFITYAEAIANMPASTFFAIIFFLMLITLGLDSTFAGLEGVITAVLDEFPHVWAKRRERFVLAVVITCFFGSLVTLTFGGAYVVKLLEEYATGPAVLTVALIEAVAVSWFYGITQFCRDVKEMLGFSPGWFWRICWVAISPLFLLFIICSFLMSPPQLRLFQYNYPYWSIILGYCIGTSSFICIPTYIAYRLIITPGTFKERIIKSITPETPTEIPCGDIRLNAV

As a reminder, the Ki is a measure of affinity in units of concentration, obtained from inhibition or displacement. A low value points to higher affinity. With `O=C1NCc2cc(F)c(OCCCN3CCN(c4cccc5ccccc45)CC3)cc21`, the values for the Ki in assay [1], in assay [2] and in assay [3] were 54.6 nM, 32.1 nM and 0.671 nM, respectively.
As to `O=C1NCc2ccc(OCCCN3CCN(c4cccc5cc(F)ccc45)CC3)c(F)c21`, the Ki in assay [1] was 37.4 nM; in assay [2], 5.41 nM; in assay [4], 24.7 nM; in assay [3], 3.04 nM.
For the compound `Cc1cc2c(cc1OCCCCN1CCN(c3cccc4cc(F)ccc34)CC1)C(=O)NC2`, the Ki was 29.5 nM in assay [2], 8.81 nM in assay [4] and 1.98 nM in assay [3].
Regarding `O=C1NCc2ccc(OCCCN3CCN(c4cccc5c4OCCC5)CC3)cc21`, the results for the Ki in assay [2] and in assay [3] were 25.3 nM and 0.0501 nM, respectively.
As for `O=C1NCc2ccc(OCCCCN3CCN(c4cccc5cccc(F)c45)CC3)c(F)c21`, the Ki in assay [1] came to 57.2 nM; in assay [2], 0.568 nM; in assay [4], 48.1 nM; in assay [3], 2.09 nM.
For the compound `O=C1NCc2cc(F)c(OCCCCN3CCN(c4cccc5ccc(F)cc45)CC3)cc21`, the values for the Ki in assay [1], in assay [2] and in assay [3] were 110 nM, 10 nM and 1.77 nM, respectively.
Take `Cc1cc2c(cc1OCCCN1CCN(c3cccc4cc(F)ccc34)CC1)C(=O)NC2`: the results for the Ki in assay [2], in assay [4] and in assay [3] were 52 nM, 13.6 nM and 0.517 nM, respectively.
For the compound `O=C1NCc2cc(F)c(OCCCN3CCN(c4cccc5cc(F)ccc45)CC3)cc21`, the Ki came out at 22.2 nM in assay [1], 38.5 nM in assay [2], 9.22 nM in assay [4] and 0.88 nM in assay [3].
As for `O=C1NCc2cc(F)c(OCCCN3CCN(c4cccc5cccc(F)c45)CC3)cc21`, the values for the Ki in assay [1], in assay [2] and in assay [3] were 15.6 nM, 1.19 nM and less than 0.521 nM, respectively.
Turning to `O=C1NCc2ccc(OCCCCN3CCN(c4cccc5c4COC5)CC3)cc21`, the inhibitory constant (Ki) in assay [2] was found to be 126 nM; in assay [3], 6.88 nM.
With `O=C1NCc2ccc(OCCCCN3CCN(c4cccc5ccccc45)CC3)c(F)c21`, the Ki is 2520 nM in assay [1], 1.08 nM in assay [2] and 3.62 nM in assay [3].
On to `O=C1NCc2ccc(OCCCN3CCN(c4cccc5c4CCO5)CC3)cc21`, for which the inhibitory constant (Ki) in assay [2] was 4.29 nM; in assay [3] it was 1.46 nM.
Taken in the same sequence, the figures for `O=C1NCc2ccc(OCCCCN3CCN(c4cccc5c4OCCC5)CC3)cc21` were 17.1 nM and 0.863 nM.
As for `O=C1NCc2cc(Cl)c(OCCCCN3CCN(c4cccc5cccc(F)c45)CC3)cc21`, the Ki in assay [2] stood at 25.3 nM; in assay [4], 45.6 nM; in assay [3] it was 1.68 nM.
For `O=C1NCc2ccc(OCCCCN3CCN(c4cccc5cc(F)ccc45)CC3)c(F)c21`, the Ki was 2720 nM in assay [1], 3.07 nM in assay [2] and 5.01 nM in assay [3].
The like results for `O=C1NCc2ccc(OCCCN3CCN(c4cccc5ccccc45)CC3)c(F)c21` were, in that order, 84.7 nM, 2.21 nM and 0.128 nM.
Regarding `O=C1NCc2ccc(OCCCN3CCN(c4cccc5ccccc45)CC3)c(Cl)c21`, the inhibitory constant (Ki) in assay [2] stood at 2.06 nM; in assay [4] it was 104 nM; in assay [3] it was 0.786 nM.
Taken in the same sequence, the figures for `O=C1NCc2ccc(OCCCN3CCN(c4cccc5cccc(F)c45)CC3)c(Cl)c21` were 3.55 nM, 230 nM and 0.312 nM.
Turning to `O=C1NCc2ccc(OCCCCN3CCN(c4cccc5ccc(F)cc45)CC3)c(F)c21`, the Ki in assay [1] worked out at 259 nM; in assay [2], 2.1 nM; in assay [3] it was 4.56 nM.
In the case of `Cc1cc2c(cc1OCCCCN1CCN(c3cccc4ccccc34)CC1)C(=O)NC2`, the Ki is 36.8 nM in assay [2], 504 nM in assay [4] and 0.803 nM in assay [3].
Taken in the same sequence, the figures for `Cc1c(OCCCCN2CCN(c3cccc4cccc(F)c34)CC2)ccc2c1C(=O)NC2` were 3.85 nM, 292 nM and 2.61 nM.
For the compound `O=C1NCc2cc(F)c(OCCCCN3CCN(c4cccc5cc(F)ccc45)CC3)cc21`, the Ki in assay [1] turned out to be 9.1 nM; in assay [2], 13.8 nM; in assay [4], 13 nM; in assay [3] it was 2.71 nM.
As to `O=C1NCc2ccc(OCCCCN3CCN(c4cccc5cccc(F)c45)CC3)c(Cl)c21`, the Ki in assay [2] was 1.13 nM; in assay [4] it was 213 nM; in assay [3] it was 4.25 nM.
Taken in the same sequence, the figures for `O=C1NCc2cc(Cl)c(OCCCCN3CCN(c4cccc5ccccc45)CC3)cc21` were 24.7 nM, 96.3 nM and 2.34 nM.
For `O=C1NCc2ccc(OCCCN3CCN(c4cccc5cccc(F)c45)CC3)c(F)c21`, the Ki was 160 nM in assay [1], 3.45 nM in assay [2] and less than 0.14 nM in assay [3].
On to `O=C1NCc2ccc(OCCCCN3CCN(c4cccc5c4CCO5)CC3)cc21`, for which the Ki in assay [2] is 53.4 nM; in assay [3], 1.45 nM.
For the compound `Cc1c(OCCCN2CCN(c3cccc4cc(F)ccc34)CC2)ccc2c1C(=O)NC2`, the Ki in assay [2] came to 12.5 nM; in assay [4] it was 21.4 nM; in assay [3], 1.08 nM.
`O=C1NCc2ccc(OCCCCN3CCN(c4cccc5c4CCCC5)CC3)cc21`: the Ki in assay [2] worked out at 3.35 nM; in assay [3], 1.92 nM.
Turning to `Cc1c(OCCCN2CCN(c3cccc4ccccc34)CC2)ccc2c1C(=O)NC2`, the Ki in assay [2] turned out to be 9.43 nM; in assay [4], 194 nM; in assay [3], 0.615 nM.
Taken in the same sequence, the figures for `Cc1cc2c(cc1OCCCN1CCN(c3cccc4cccc(F)c34)CC1)C(=O)NC2` were 65.7 nM, 174 nM and 1.44 nM.
The like results for `Cc1c(OCCCCN2CCN(c3cccc4cc(F)ccc34)CC2)ccc2c1C(=O)NC2` were, in that order, 14 nM, 47 nM and 17.5 nM.
Taken in the same sequence, the figures for `Cc1cc2c(cc1OCCCCN1CCN(c3cccc4cccc(F)c34)CC1)C(=O)NC2` were 55 nM, 118 nM and 3.61 nM.
For `Cc1c(OCCCCN2CCN(c3cccc4ccccc34)CC2)ccc2c1C(=O)NC2`, the values for the Ki in assay [2], in assay [4] and in assay [3] were 1.26 nM, 388 nM and 3.22 nM, respectively.
Taken in the same sequence, the figures for `Cc1c(OCCCN2CCN(c3cccc4cccc(F)c34)CC2)ccc2c1C(=O)NC2` were 16.1 nM, 437 nM and 2.13 nM.
Consider `O=C1NCc2cc(F)c(OCCCCN3CCN(c4cccc5ccccc45)CC3)cc21`, for which the figures for the Ki in assay [1], in assay [2] and in assay [3] were 30.8 nM, 13 nM and 0.637 nM, respectively.
In the case of `O=C1NCc2ccc(OCCCCN3CCN(c4cccc5c4CCC5)CC3)cc21`, the Ki came out at 10.1 nM in assay [2] and 0.74 nM in assay [3].
As to `O=C1NCc2cc(Cl)c(OCCCN3CCN(c4cccc5cccc(F)c45)CC3)cc21`, the Ki in assay [2] worked out at 8.84 nM; in assay [4], 20.2 nM; in assay [3] it was 0.859 nM.
In the case of `O=C1NCc2ccc(OCCCN3CCN(c4cccc5c4CCC5)CC3)cc21`, the Ki was 3.16 nM in assay [2] and greater than 4.04 nM in assay [3].
For `O=C1NCc2cc(Cl)c(OCCCN3CCN(c4cccc5ccccc45)CC3)cc21`, the Ki in assay [2] came out at 34.4 nM; in assay [4] it was 67.7 nM; in assay [3], 0.814 nM.
As to `O=C1NCc2ccc(OCCCN3CCN(c4cccc5c4CCCC5)CC3)cc21`, the Ki in assay [2] turned out to be 4.86 nM; in assay [3], 0.269 nM.
In the case of `Cc1cc2c(cc1OCCCN1CCN(c3cccc4ccccc34)CC1)C(=O)NC2`, the Ki is 55.9 nM in assay [2], 1040 nM in assay [4] and 0.67 nM in assay [3].

These data come from ChEMBL document CHEMBL1255556, “6-Alkoxyisoindolin-1-one based dopamine D2 partial agonists as potential antipsychotics” (Bioorg Med Chem Lett, 2010).
